What was measured:
Experiment in all cases: relative viability (nuclei count vs DMSO), 5 days (fraction); higher = more cells survive
Alisertib + Tozasertib = compound: COc1cc(Nc2ncc3c(n2)-c2ccc(Cl)cc2C(c2c(F)cccc2OC)=NC3)ccc1C(=O)O [Alisertib] + Cc1cc(Nc2cc(N3CCN(C)CC3)nc(Sc3ccc(NC(=O)C4CC4)cc3)n2)n[nH]1 [Tozasertib] (partner 0.1 µM)
Outline: (§1)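 Lung cancer cell lines in 1536-well plates got either a single drug or a fixed anchor-drug dose together with five library-drug doses (not always all listed) in √10 steps, by pin tool, on the day after seeding. Nuclei were counted after 5 days, and relative viability is the treated-to-vehicle ratio of nuclei counts. Values are medians of duplicate plates.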

Alisertib + Foretinib = compound: COc1cc(Nc2ncc3c(n2)-c2ccc(Cl)cc2C(c2c(F)cccc2OC)=NC3)ccc1C(=O)O [Alisertib] + COc1cc2c(Oc3ccc(NC(=O)C4(C(=O)Nc5ccc(F)cc5)CC4)cc3F)ccnc2cc1OCCCN1CCOCC1 [Foretinib] (partner 0.25 µM)
Outline: as §1

Alisertib + AZD7762 = compound: COc1cc(Nc2ncc3c(n2)-c2ccc(Cl)cc2C(c2c(F)cccc2OC)=NC3)ccc1C(=O)O [Alisertib] + NC(=O)Nc1cc(-c2cccc(F)c2)sc1C(=O)N[C@H]1CCCNC1 [AZD7762] (partner 0.2 µM)
Outline: as §1

Alisertib + Luminespib = compound: COc1cc(Nc2ncc3c(n2)-c2ccc(Cl)cc2C(c2c(F)cccc2OC)=NC3)ccc1C(=O)O [Alisertib] + CCNC(=O)c1noc(-c2cc(C(C)C)c(O)cc2O)c1-c1ccc(CN2CCOCC2)cc1 [Luminespib] (partner 0.01 µM)
Outline: as §1

Cell Line	relative viability (Alisertib + Tozasertib; first compound 0.005 µM)	relative viability (Alisertib + Tozasertib; first compound 0.01581 µM)	relative viability (Alisertib + Tozasertib; first compound 0.05 µM)	relative viability (Alisertib + Tozasertib; first compound 0.1581 µM)	relative viability (Alisertib + Tozasertib; first compound 0.5 µM)	relative viability (Alisertib + Foretinib; first compound 0.005 µM)	relative viability (Alisertib + Foretinib; first compound 0.01581 µM)	relative viability (Alisertib + Foretinib; first compound 0.05 µM)	relative viability (Alisertib + Foretinib; first compound 0.1581 µM)	relative viability (Alisertib + Foretinib; first compound 0.5 µM)	relative viability (Alisertib + AZD7762; first compound 0.005 µM)	relative viability (Alisertib + AZD7762; first compound 0.01581 µM)	relative viability (Alisertib + AZD7762; first compound 0.05 µM)	relative viability (Alisertib + AZD7762; first compound 0.1581 µM)	relative viability (Alisertib + AZD7762; first compound 0.5 µM)	relative viability (Alisertib + Luminespib; first compound 0.005 µM)	relative viability (Alisertib + Luminespib; first compound 0.01581 µM)	relative viability (Alisertib + Luminespib; first compound 0.05 µM)	relative viability (Alisertib + Luminespib; first compound 0.1581 µM)	relative viability (Alisertib + Luminespib; first compound 0.5 µM)
NCI-H838	0.272	0.262	0.231	0.195	0.201	1.03	0.971	0.605	0.394	0.202	0.943	0.852	0.715	0.669	0.626	0.386	0.343	0.252	0.135	0.133
NCI-H1355	0.53	0.462	0.297	0.192	0.217	0.88	0.892	0.343	0.244	0.202	0.707	0.641	0.364	0.168	0.146	0.67	0.37	0.221	0.183	0.217
NCI-H1395	0.725	0.708	0.488	0.478	0.391	0.895	0.916	0.696	0.561	0.38	0.363	0.403	0.37	0.376	0.361	0.78	0.561	0.566	0.342	0.343
NCI-H1437	0.38	0.372	0.297	0.269	0.195	1.08	0.939	0.796	0.454	0.236	1.07	1.09	0.751	0.399	0.201	1.01	0.919	0.707	0.462	0.237
NCI-H1651	0.492	0.617	0.273	0.269	0.205	0.907	0.571	0.445	0.338	0.195	0.456	0.455	0.385	0.199	0.129	0.81	0.782	0.306	0.263	0.169
NCI-H1666	0.625	0.412	0.365	0.391	0.355	0.841	0.82	0.597	0.415	0.403	0.768	0.698	0.636	0.477	0.375	0.879	0.801	0.639	0.471	0.379
NCI-H1734	0.262	0.231	0.22	0.195	0.188	0.841	0.731	0.314	0.327	0.174	0.501	0.366	0.23	0.18	0.149	0.172	0.214	0.149	0.146	0.132
NCI-H1755	0.6	0.569	0.422	0.386	0.311	0.85	0.846	0.615	0.532	0.325	0.478	0.427	0.332	0.328	0.259	0.463	0.409	0.255	0.189	0.199

From the supplement of paper PMC10307832
